Source: patent US11780845B2 (Relay Therapeutics, Inc., priority 2019, dated 2023)

What was measured:
FGFR2 = FGFR2 (Homo sapiens (Human), UniProt P21802); assay: Biochemical FGFR2 Caliper assay
SNU-16 = assay: Cell SNU-16 assay; assay type: cell-based; settings: Homo sapiens, SNU-16, SNU-16 cells

FGFR2, sequence (P21802 22-821): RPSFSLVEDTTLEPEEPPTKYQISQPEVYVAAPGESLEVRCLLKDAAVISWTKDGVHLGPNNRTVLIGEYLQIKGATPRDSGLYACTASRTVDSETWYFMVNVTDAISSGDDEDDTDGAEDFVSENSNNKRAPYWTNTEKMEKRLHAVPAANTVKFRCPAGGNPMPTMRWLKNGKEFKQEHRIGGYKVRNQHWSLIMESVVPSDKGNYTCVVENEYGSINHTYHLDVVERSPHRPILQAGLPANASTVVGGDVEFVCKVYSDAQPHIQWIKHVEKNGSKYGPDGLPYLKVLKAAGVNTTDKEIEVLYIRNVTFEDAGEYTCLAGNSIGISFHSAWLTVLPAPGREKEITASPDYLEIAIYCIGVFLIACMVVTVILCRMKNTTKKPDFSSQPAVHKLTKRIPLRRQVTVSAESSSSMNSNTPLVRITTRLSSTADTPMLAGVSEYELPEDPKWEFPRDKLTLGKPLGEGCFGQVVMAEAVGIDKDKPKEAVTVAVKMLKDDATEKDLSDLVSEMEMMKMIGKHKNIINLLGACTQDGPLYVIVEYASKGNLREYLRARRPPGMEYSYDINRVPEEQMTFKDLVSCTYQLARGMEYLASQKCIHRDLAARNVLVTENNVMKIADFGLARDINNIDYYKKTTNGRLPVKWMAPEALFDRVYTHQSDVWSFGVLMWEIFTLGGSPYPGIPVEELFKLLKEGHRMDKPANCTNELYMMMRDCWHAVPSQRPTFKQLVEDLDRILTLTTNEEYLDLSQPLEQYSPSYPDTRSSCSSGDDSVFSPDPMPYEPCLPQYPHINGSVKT

IC50 (FGFR2) | IC50 (SNU-16) | SMILES
1000 to 100000 nM | 100 to 250 nM | C=CC(=O)N1C[C@@H](c2c(-c3ccc(C(=O)N4CCCCC4)cc3)c3c(N)ncnc3n2C)C[C@@H]1C (single isomer, unassigned) [Example 884]
1000 to 100000 nM | 1000 to 100000 nM | C=CC(=O)N1CC[C@@H](c2c(C3=CC[C@H](C(=O)N4CCCC4)CC3)c3c(N)ncnc3n2C)C1 (single isomer, unassigned) [Example 887]
1000 to 100000 nM | 1000 to 100000 nM | C=CC(=O)N1C[C@H](c2c(-c3ccc(C(=O)N4CCCCC4)cc3)c3c(N)ncnc3n2C)C[C@@H]1C (single isomer, unassigned) [Example 888]
1000 to 100000 nM | 1000 to 100000 nM | C=C(C)C(=O)Nc1ccc(-c2c(C3=CC[C@@H](C(=O)N4CCC5(CC5)C4)CC3)c3c(N)ncnc3n2C)cc1 (single isomer, unassigned) [Example 891]
100 to 250 nM | ≤ 100 nM | C=C(C)C(=O)Nc1ccc(-c2c(C3=CC[C@H](C(=O)N4CCC5(CC5)C4)CC3)c3c(N)ncnc3n2C)cc1 (single isomer, unassigned) [Example 892]
250 to 1000 nM | 250 to 1000 nM | C=C(C)C(=O)Nc1ccc(-c2c(-c3ccc4c(c3)CO[C@@H]4c3cccc(C)n3)c3c(N)ncnc3n2C)cc1 (single isomer, unassigned) [Example 894]
100 to 250 nM | 250 to 1000 nM | C=C(C)C(=O)Nc1ccc(-c2c(-c3ccc4c(c3)CO[C@H]4c3cccc(C)n3)c3c(N)ncnc3n2C)cc1 (single isomer, unassigned) [Example 896]
100 to 250 nM | ≤ 100 nM | Cn1c(-c2ccc(NC(=O)CCl)cc2)c(C2=CC[C@H](C(=O)N3CCCC3)CC2)c2c(N)ncnc21 (single isomer, unassigned) [Example 905]
< 100 nM | ≤ 100 nM | Cn1c(-c2ccc(NC(=O)CCl)cc2)c(C2=CC[C@@H](C(=O)N3CCCC3)CC2)c2c(N)ncnc21 (single isomer, unassigned) [Example 906]
100 to 250 nM | ≤ 100 nM | Cc1ccnc(Oc2ccc(-c3c(C4=CCN(C(=O)[C@H]5CO5)C4)n(C)c4ncnc(N)c34)cc2)n1 (single isomer, unassigned) [Example 908]
1000 to 100000 nM | 1000 to 100000 nM | Cc1ccnc(Oc2ccc(-c3c(C4=CCN(C(=O)[C@@H]5CO5)C4)n(C)c4ncnc(N)c34)cc2)n1 (single isomer, unassigned) [Example 909]
< 100 nM | ≤ 100 nM | C=C(C)C(=O)Nc1ccc(-c2c(C3=CC[C@H](C(=O)N4CCCC45COC5)CC3)c3c(N)ncnc3n2C)cc1 (single isomer, unassigned) [Example 913]
< 100 nM | ≤ 100 nM | C=C(C)C(=O)Nc1ccc(-c2c(C3=CC[C@@H](C(=O)N4CCCC45COC5)CC3)c3c(N)ncnc3n2C)cc1 (single isomer, unassigned) [Example 914]
100 to 250 nM | 100 to 250 nM | Cc1ccnc(Oc2ccc(-c3c(-c4ccc(OC[C@H]5CO5)cc4)n(C)c4ncnc(N)c34)cc2)n1 (single isomer, unassigned) [Example 917]
250 to 1000 nM | 1000 to 100000 nM | Cc1ccnc(Oc2ccc(-c3c(-c4ccc(OC[C@@H]5CO5)cc4)n(C)c4ncnc(N)c34)cc2)n1 (single isomer, unassigned) [Example 918]
100 to 250 nM | 1000 to 100000 nM | C=C(C)C(=O)Nc1ccc(-c2c(-c3ccc4c(c3)OC[C@@H]4c3cccc(C)n3)c3c(N)ncnc3n2C)cc1 (single isomer, unassigned) [Example 919]

IC50 (FGFR2) | IC50 (SNU-16) | SMILES
< 100 nM | ≤ 100 nM | C=C(C)C(=O)Nc1ccc(-c2c(-c3ccc4c(c3)OC[C@H]4c3cccc(C)n3)c3c(N)ncnc3n2C)cc1 (single isomer, unassigned) [Example 920]
< 100 nM | ≤ 100 nM | C=C(C)C(=O)Nc1ccc(-c2c(N3CC[C@@H](C(=O)N4CCCC4)CC3=O)c3c(N)ncnc3n2C)cc1 (single isomer, unassigned) [Example 925]
1000 to 100000 nM | 1000 to 100000 nM | C=C(C)C(=O)Nc1ccc(-c2c(N3CC[C@H](C(=O)N4CCCC4)CC3=O)c3c(N)ncnc3n2C)cc1 (single isomer, unassigned) [Example 926]
1000 to 100000 nM | 1000 to 100000 nM | C=CC(=O)N[C@@H]1Cc2ccc(-c3c(-c4ccc(Oc5nccc(C)n5)cc4)c4c(N)ncnc4n3C)cc2C1 (single isomer, unassigned) [Example 927]
250 to 1000 nM | 250 to 1000 nM | C=CC(=O)N[C@H]1Cc2ccc(-c3c(-c4ccc(Oc5nccc(C)n5)cc4)c4c(N)ncnc4n3C)cc2C1 (single isomer, unassigned) [Example 928]
250 to 1000 nM | 100 to 250 nM | C=CC(=O)N[C@H]1CCc2cc(-c3c(-c4ccc(Oc5nccc(C)n5)cc4)c4c(N)ncnc4n3C)ccc21 (single isomer, unassigned) [Example 929]
250 to 1000 nM | 100 to 250 nM | C=C(C)C(=O)N1CC=C(c2c(-c3ccc(Oc4cccc(C)n4)cc3)c3c(N)ncnc3n2C)[C@H]1C (single isomer, unassigned) [Example 930]
250 to 1000 nM | 1000 to 100000 nM | C=C(C)C(=O)N1CC=C(c2c(-c3ccc(Oc4cccc(C)n4)cc3)c3c(N)ncnc3n2C)[C@@H]1C (single isomer, unassigned) [Example 931]
100 to 250 nM | 250 to 1000 nM | C=CC(=O)N1CC=C(c2c(-c3ccc(Oc4cccc(C)n4)cc3)c3c(N)ncnc3n2C)[C@H]1C (single isomer, unassigned) [Example 932]
< 100 nM | ≤ 100 nM | C=CC(=O)N1CC=C(c2c(-c3ccc(Oc4cccc(C)n4)cc3)c3c(N)ncnc3n2C)[C@@H]1C (single isomer, unassigned) [Example 933]
< 100 nM | ≤ 100 nM | C=C(C)C(=O)Nc1ccc(-c2c(C3=CC[C@]4(CC3)CCN(C)C4=O)c3c(N)ncnc3n2C)cc1 (single isomer, unassigned) [Example 934]
1000 to 100000 nM | 1000 to 100000 nM | C=C(C)C(=O)Nc1ccc(-c2c(C3=CC[C@@]4(CC3)CCN(C)C4=O)c3c(N)ncnc3n2C)cc1 (single isomer, unassigned) [Example 935]
1000 to 100000 nM | 250 to 1000 nM | C=C(C)C(=O)Nc1ccc(-c2c(C3=CC[C@@H](C(=O)N4CCCC4)C[C@H]3C)c3c(N)ncnc3n2C)cc1 (single isomer, unassigned) [Example 936]
1000 to 100000 nM | 1000 to 100000 nM | C=C(C)C(=O)Nc1ccc(-c2c(C3=CC[C@H](C(=O)N4CCCC4)C[C@H]3C)c3c(N)ncnc3n2C)cc1 (single isomer, unassigned) [Example 938]
1000 to 100000 nM | 1000 to 100000 nM | C=C(C)C(=O)Nc1ccc(-c2c(C3=CC[C@H](C(=O)N4CCCC4)C[C@@H]3C)c3c(N)ncnc3n2C)cc1 (single isomer, unassigned) [Example 939]

SMILES | IC50 (FGFR2) | IC50 (SNU-16)
Cn1c(-c2ccc(NC(=O)[C@@H]3CN3)cc2)c(-c2ccc(C(=O)N3CCCC3)cc2)c2c(N)ncnc21 (single isomer, unassigned) [Example 899] | 1000 to 100000 nM | 1000 to 100000 nM
Cn1c(-c2ccc(NC(=O)[C@H]3CN3)cc2)c(-c2ccc(C(=O)N3CCCC3)cc2)c2c(N)ncnc21 (single isomer, unassigned) [Example 900] | 1000 to 100000 nM | 1000 to 100000 nM
